Holding throughout (assay): DTP human tumour cell line panel, 48 h
The subject of assay [1] is T-47D breast.
Assay [2] relates to HS 578T breast.
For assay [3], the system named is BT-549 breast.
The test system of assay [4] is KM20L2 colon.
In assay [5] the test system is DMS 273 small cell lung.
The subject of assay [6] is DLD-1 colon.
Assay [7] concerns SNB-78 CNS.
For assay [8], the system named is DMS 114 small cell lung.

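Exposure lasted 48 hours, with cells grown in 96-well plates and compounds tested at five concentrations. GI50: concentration for 50% inhibition of growth. TGI: total growth inhibition.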 A value given as a limit tells only on which side of the number the result lay.

Broadly, the GI50 is the concentration that inhibits growth by half. In general, TGI refers to the concentration at which net growth stops. For `c1ccc2c(c1)nc(NCCN1CCNCC1)c1c3ccccc3[nH]c21`, the GI50 in assay [1] is 0.903 µM; in assay [2], 1.19 µM; in assay [3], 1.53 µM. The TGI in assay [1] turned out to be 3.83 µM; in assay [2] it was 4.67 µM; in assay [3], 4.04 µM.
Turning to `COc1cc(C(c2cc3c(cc2O)OCO3)N2CCCC2)cc(OC)c1OC` (centres undefined), the TGI in assay [1] was determined as 45.7 µM.
As to `Cc1ccc(NCSc2ccc(Cl)cc2)cc1`, the GI50 in assay [1] is 9.55 µM; in assay [2], 24.7 µM; in assay [3] it was 6.43 µM. For the same compound, the TGI in assay [1], in assay [2] and in assay [3] was more than 100 µM each time.
With `O=C1OC(c2ccc(O)cc2)(c2ccc(O)cc2)c2cccc3cccc1c23`, the results for the 50% growth inhibitory concentration (GI50) in assay [1], in assay [2] and in assay [3] were 0.118 µM, 0.249 µM and 1.26 µM, respectively. Also, the values for the concentration for total growth inhibition (TGI) in assay [1], in assay [2] and in assay [3] were 12 µM, 20.9 µM and 4.01 µM, respectively.
As to `Oc1cccc(-c2nc3ccccc3s2)c1`, the TGI in assay [1] was 56.8 µM; in assay [2] it was 44.4 µM; in assay [3], more than 100 µM.
Regarding `Cc1ccc(C2=Nc3c(N)ncnc3NC(c3cccc(Nc4ccnc5cc(C(F)(F)F)ccc45)c3)C2)cc1` (centres undefined), the results for the GI50 in assay [1], in assay [2] and in assay [3] were 4.45 µM, 4.01 µM and 2.83 µM, respectively. In addition, the TGI in assay [1] is more than 100 µM; in assay [2] it was more than 100 µM; in assay [3], 13.4 µM.
Consider `CN1C(=O)c2cc(Cl)nc3c(NC(=O)c4cccc(Cl)c4)c(Cl)c(NC(=O)c4cccc(Cl)c4)c1c23`, for which the GI50 in assay [1] was 1.77 µM; in assay [2] it was 2.48 µM; in assay [3], 1.64 µM. Also, the TGI turned out to be 4.32 µM in assay [1], 7.16 µM in assay [2] and 3.19 µM in assay [3].
With `CC(C)OP(=O)(CP(=O)(OC(C)C)OC(C)C)OC(C)C.[CH3][Sn]([Br])([Br])[Br]`, the GI50 in assay [4], in assay [5], in assay [6], in assay [7] and in assay [8] was more than 100 µM each time. Moreover, the TGI in assay [4], in assay [5], in assay [6], in assay [7] and in assay [8] was more than 100 µM in each case.
Take `COc1ccc(C[C@H]2C[C@@H](O)[C@@H](C)C/C=C/Cc3cccc(O)c3C(=O)O2)cn1`: the values for the GI50 in assay [1], in assay [2] and in assay [3] were 33.1 µM, 14.4 µM and 20.7 µM, respectively. The TGI in assay [1] was more than 100 µM; in assay [2], 36.7 µM; in assay [3] it was 48.8 µM.
Regarding `Nc1ncnc2occ(-c3ccc(NC(=O)Nc4cc(C(F)(F)F)cc(C(F)(F)F)c4)cc3)c12`, the GI50 in assay [1] was 3.27 µM; in assay [2], 2.12 µM; in assay [3] it was 2.66 µM. The TGI came to 7.54 µM in assay [1], 8.03 µM in assay [2] and 5.77 µM in assay [3].
Regarding `COc1cc(C2C3=C(COC3=O)N(CCO)c3cc4c(cc32)CCC4)cc(OC)c1O` (centres undefined), the GI50 is 0.141 µM in assay [1], 0.106 µM in assay [2] and 0.68 µM in assay [3]. Also, the TGI in assay [1] was more than 32.5 µM; in assay [2], 11.4 µM; in assay [3] it was more than 9.16 µM.
Take `COC(=O)c1c(C)oc2ccc(OC(C)=O)cc12`: the TGI in assay [4], in assay [5], in assay [7] and in assay [8] was more than 100 µM throughout.
Turning to `CCOP(=O)(OCC)/C(C#N)=C\c1cccc2ccccc12`, the TGI was more than 100 µM in assay [1]; more than 100 µM in assay [4]; 57.7 µM in assay [2]; more than 100 µM in assay [7]; more than 100 µM in assay [3].
On to `C[C@@H](NC(=O)Cc1cc(F)cc(F)c1)C(=O)N[C@@]1(C)N=C(c2ccccc2)c2ccccc2N(C)C1=O`, for which the TGI in assay [1] was more than 66.6 µM; in assay [2], more than 100 µM; in assay [3] it was more than 66.4 µM. Besides, the GI50 in assay [2] was 24.7 µM; in assay [3] it was 9.6 µM.
`CC1(CC(=O)O)OC2CCCCCC2O1` (centres undefined) (tested in a mixture with another compound): the TGI in assay [1], in assay [2] and in assay [3] was more than 100 µM each time.
As for `Cc1ccc([P+](Cc2ccc([N+](=O)[O-])cc2)(c2ccc(C)cc2)c2ccc(C)cc2)cc1`, in assay [2], the GI50 was 3.46 µM and the TGI came out at 17.7 µM. In assay [3], the GI50 was 2.68 µM and the TGI was found to be 8.87 µM.
For the compound `COc1cc2oc3ccccc3c(=O)c2cc1CSc1ccccc1N`, the total growth inhibition concentration (TGI) is 27.8 µM in assay [1], more than 100 µM in assay [2] and more than 100 µM in assay [3].
For `CC(C)(C)n1cc(-c2ccnc(NCCNS(=O)(=O)c3ccc(Br)cc3)c2)c(-c2cccc(O)c2)n1`, in assay [1], the GI50 is 1.65 µM and the TGI stood at 5.44 µM. For the same compound, in assay [3], the GI50 is 1.64 µM and the TGI was 3.2 µM.
For `COc1c(O)c(OC)c(C(=O)/C=C/c2ccccc2)c(O)c1OC`, the TGI in assay [1] is 79.7 µM; in assay [2], more than 100 µM.
With `COc1cc[nH]c1/C=C1\C(=O)Nc2ccc(F)c(C#CC3(O)CCOCC3)c21`, the figures for the GI50 in assay [1], in assay [2] and in assay [3] were 1.1 µM, 0.528 µM and 0.556 µM, respectively. Moreover, the TGI in assay [1] was found to be 16 µM; in assay [2], 3.56 µM; in assay [3] it was 1.37 µM.
Regarding `CC(CS(=O)(=O)Cc1ccccc1)C(N)=O` (centres undefined), the TGI in assay [1], in assay [2] and in assay [3] was more than 100 µM each time.
Consider `Cc1c(C(C)C)cc(OCCO)cc1C(C)C`, for which the TGI in assay [1] is more than 100 µM; in assay [2], 93.3 µM; in assay [3], more than 100 µM.

For the origin of these results see PubChem BioAssay (NCI).
